Source: BindingDB's records for doi:10.1074/jbc.M111.292243 (University of Copenhagen, 2012)

How the values were obtained:
Assay in all cases: Radioligand Competition Assay
[1] = molecular target: Acetylcholine-binding protein (Lymnaea stagnalis, UniProt P58154)
[2] = molecular target: Neuronal acetylcholine receptor subunit alpha-4 (Rattus norvegicus, UniProt P09483)
[3] = molecular target: Neuronal acetylcholine receptor subunit alpha-7 (Rattus norvegicus, UniProt Q05941)
Sequence of Neuronal acetylcholine receptor subunit alpha-7 (Q05941 whole entry): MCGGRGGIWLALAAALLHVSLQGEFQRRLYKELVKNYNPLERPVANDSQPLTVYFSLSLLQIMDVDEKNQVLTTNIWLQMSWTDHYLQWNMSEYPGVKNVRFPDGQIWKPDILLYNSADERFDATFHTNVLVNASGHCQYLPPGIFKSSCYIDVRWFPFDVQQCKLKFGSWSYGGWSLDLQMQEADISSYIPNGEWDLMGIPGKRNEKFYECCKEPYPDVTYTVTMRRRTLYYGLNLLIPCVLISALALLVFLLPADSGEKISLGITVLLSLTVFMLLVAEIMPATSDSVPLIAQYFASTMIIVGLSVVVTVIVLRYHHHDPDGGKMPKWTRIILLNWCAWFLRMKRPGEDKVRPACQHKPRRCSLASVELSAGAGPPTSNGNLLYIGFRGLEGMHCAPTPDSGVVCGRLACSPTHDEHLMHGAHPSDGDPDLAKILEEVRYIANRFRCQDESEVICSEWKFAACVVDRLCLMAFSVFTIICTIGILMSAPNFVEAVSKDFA

Sequence of Acetylcholine-binding protein (P58154 whole entry): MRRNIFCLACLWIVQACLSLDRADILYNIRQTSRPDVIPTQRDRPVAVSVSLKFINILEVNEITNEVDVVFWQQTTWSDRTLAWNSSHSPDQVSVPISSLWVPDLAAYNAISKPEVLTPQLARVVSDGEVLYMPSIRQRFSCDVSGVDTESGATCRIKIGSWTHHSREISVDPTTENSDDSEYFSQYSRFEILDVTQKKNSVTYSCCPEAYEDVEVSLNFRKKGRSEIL
Sequence of Neuronal acetylcholine receptor subunit alpha-4 (P09483 whole entry): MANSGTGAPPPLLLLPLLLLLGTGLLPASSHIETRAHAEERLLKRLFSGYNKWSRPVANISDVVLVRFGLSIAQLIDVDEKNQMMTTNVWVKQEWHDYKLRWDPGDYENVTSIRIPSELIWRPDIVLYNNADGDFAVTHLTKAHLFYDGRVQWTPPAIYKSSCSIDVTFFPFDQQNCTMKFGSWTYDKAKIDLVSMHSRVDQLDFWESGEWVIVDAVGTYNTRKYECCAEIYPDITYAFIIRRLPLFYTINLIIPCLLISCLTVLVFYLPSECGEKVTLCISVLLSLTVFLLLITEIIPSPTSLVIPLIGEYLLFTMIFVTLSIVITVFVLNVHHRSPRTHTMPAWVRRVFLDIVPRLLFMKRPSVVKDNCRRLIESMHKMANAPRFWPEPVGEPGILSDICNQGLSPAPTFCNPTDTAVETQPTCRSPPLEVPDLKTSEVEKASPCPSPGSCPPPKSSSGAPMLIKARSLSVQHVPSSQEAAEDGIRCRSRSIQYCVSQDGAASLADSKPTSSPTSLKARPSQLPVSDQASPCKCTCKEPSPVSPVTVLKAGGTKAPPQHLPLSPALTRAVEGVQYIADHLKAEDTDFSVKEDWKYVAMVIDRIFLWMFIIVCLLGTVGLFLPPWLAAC

Row | Structure (SMILES) | Ki [1] | Ki [2] | Ki [3]
1 | O=c1cccc2n1CC1CNCC2C1 (stereo not given) [CAS_485-35-8] | 8.2 nM | 0.95 nM | 295 nM
2 | c1cncc(N2CCCNCC2)c1 | – | 0.72 nM | 136 nM
3 | CCOc1cncc(N2CCCNCC2)c1 [NS3573, 2] | 2.2 nM | 0.62 nM | 9970 nM
4 | CCOc1cc(N2CCCNCC2)cnc1Br | – | 0.25 nM | 847 nM
5 | Clc1ccc([C@H]2C[C@@H]3CC[C@H]2N3)cn1 | 0.097 nM | – | –
6 | c1ccc(-c2cncc(N3CCCNCC3)c2)cc1 | – | 0.8 nM | > 10000 nM
7 | Brc1ccc(N2CCCNCC2)cn1 [NS3920, 4] | – | 0.32 nM | 190 nM
